Laboratory results published in patent US9975861B2, “Dual inhibitor compounds for use in the treatment of neurodegenerative disorders and alzheimer's disease” (FONDAZIONE ISTITUTO ITALIANO DI TECNOLOGIA, priority 2014, dated 2018).

Legend:
[1] = system: neurosphere cultures of primary rat neural stem cells; assay: Neurosphere cultures, immunocytochemistry for neural markers; format: cell-based; details: 10 μM during a week; compared to control (FIG. 3)
From the text: Neurosphere (NS) cultures were derived from the hippocampus of adult rats and induced to proliferate using established passaging methods to achieve optimal cellular expansion according to published protocols [Ferron, S. R.; Andreu-Agullo, C.; Mira, H.; Sanchez, P.; Marques-Torrejon, M. A.; Farinas, I. A combined ex/in vivo assay to detect effects of exogenously added factors in neural stem cells. Nature Protoc. 2007, 2, 849-859]. Rats were decapitated, brains removed, and the hippocampus dissected as described [Morales-Garcia, J. A.; Luna-Medina, R.; Alfaro-Cervello, C.; Cortes-Canteli, M.; Santos, A.; Garcia-Verdugo, J. M.; Perez-Castillo, A. Peroxisome proliferator-activated receptor gamma ligands regulate neural stem cell proliferation and differentiation in vitro and in vivo. Glia 2011, 59, 293-307]. Briefly, cells were seeded into 12-well dishes and cultured in DMEM/F12 (1:1, Invitrogen) containing 10 ng/mL epidermal growth factor (EGF, Peprotech, London, UK), 10 ng/mL fibroblast growth factor (FGF, Peprotech), and B27 medium (Gibco). After 3 days in culture, NS were cultivated in the presence or absence of the indicated compounds (10 μM) during a week. After that, NS from 10-day old cultures were plated for 72 hours onto 100 μg/mL poly-L-lysine-coated coverslips in the absence of exogenous growth factors.
Neurogenesis is a crucial property for new AD-modifying drugs, since it confers the potential to increase endogenous regeneration as a repair mechanism in the damaged brain, and reduce neuronal loss and degeneration. Considering that GSK-3β inhibition is reported to regulate and increase neurogenesis [Lange, C.; Mix, E.; Frahm, J.; Glass, A.; Muller, J.; Schmitt, O.; Schmole, A. C.; Klemm, K.; Ortinau, S.; Hubner, R.; Frech, M. J.; Wree, A.; Rolfs, A. Small molecule GSK-3 inhibitors increase neurogenesis of human neural progenitor cells. Neurosci. […]

Human recombinant GSK-3β = Human recombinant GSK-3β (Homo sapiens (Human), UniProt P49841); assay: Inhibition of GSK-3β (Kinase-Glo luminescent kinase assay); format: biochemical; details: 1 μM ATP, 25 μM substrate, 30 minutes at 30° C.
Human recombinant GSK-3β, sequence (P49841 whole entry): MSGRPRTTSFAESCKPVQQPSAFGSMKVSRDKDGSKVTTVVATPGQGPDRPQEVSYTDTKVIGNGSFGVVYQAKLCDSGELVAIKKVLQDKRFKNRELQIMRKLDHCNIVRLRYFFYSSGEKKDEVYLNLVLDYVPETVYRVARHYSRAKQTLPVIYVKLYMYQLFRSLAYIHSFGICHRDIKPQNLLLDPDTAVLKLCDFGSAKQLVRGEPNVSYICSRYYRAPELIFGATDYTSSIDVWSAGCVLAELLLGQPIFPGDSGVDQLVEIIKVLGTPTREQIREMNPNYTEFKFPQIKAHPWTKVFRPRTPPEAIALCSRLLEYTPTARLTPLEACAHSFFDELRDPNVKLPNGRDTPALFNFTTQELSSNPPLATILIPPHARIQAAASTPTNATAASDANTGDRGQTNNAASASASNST
Procedure: Human recombinant GSK-3β was purchased from Millipore (Millipore Iberica S.A.U.) The prephosphorylated polypeptide substrate was purchased from Millipore (Millipore Iberica SAU). Kinase-Glo Luminescent Kinase Assay was obtained from Promega (Promega Biotech Iberica, SL). ATP and all other reagents were from Sigma-Aldrich. Assay buffer contained 50 mM 4-(2-hydroxyethyl)-1-piperazineethanesulfonic acid (HEPES) (pH 7.5), 1 mM ethylenediaminetetraacetic acid (EDTA), 1 mM ethylene glycol tetraacetic acid (EGTA), and 15 mM magnesium acetate. The method developed by Baki was followed [Baki et al. Assay and Drug Development Technologies 2007, 5(1),75-83] to analyze the inhibition of GSK-3β. Kinase-Glo assays were performed in assay buffer using white 96-well plates. In a typical assay, 10 μL (10 μM) of test compound (dissolved in DMSO at 1 mM concentration and diluted in advance in assay buffer to the desired concentration) and 10 μL (20 ng) of enzyme were added to each well followed by 20 μL of assay buffer containing 25 μM substrate and 1 μM adenosine triphosphate (ATP). […] After a 30 minutes incubation at 30° C., the enzymatic reaction was stopped with 40 μL of Kinase-Glo reagent. Glow-type luminescence was recorded after 10 minutes using a Fluoroskan Ascent multimode reader.
The activity is proportional to the difference of the total and consumed ATP.

β-secretase (BACE-1) = β-secretase (BACE-1) (Homo sapiens (Human), UniProt P56817); assay: Inhibition of BACE-1 (fluorogenic APP-mimicking peptide substrate); details: BACE-1 IC50 (μM), substrate 3 μM, 1 hour pre-incubation at rt, 15 minutes at 37° C.
β-secretase (BACE-1), sequence (P56817 46-501): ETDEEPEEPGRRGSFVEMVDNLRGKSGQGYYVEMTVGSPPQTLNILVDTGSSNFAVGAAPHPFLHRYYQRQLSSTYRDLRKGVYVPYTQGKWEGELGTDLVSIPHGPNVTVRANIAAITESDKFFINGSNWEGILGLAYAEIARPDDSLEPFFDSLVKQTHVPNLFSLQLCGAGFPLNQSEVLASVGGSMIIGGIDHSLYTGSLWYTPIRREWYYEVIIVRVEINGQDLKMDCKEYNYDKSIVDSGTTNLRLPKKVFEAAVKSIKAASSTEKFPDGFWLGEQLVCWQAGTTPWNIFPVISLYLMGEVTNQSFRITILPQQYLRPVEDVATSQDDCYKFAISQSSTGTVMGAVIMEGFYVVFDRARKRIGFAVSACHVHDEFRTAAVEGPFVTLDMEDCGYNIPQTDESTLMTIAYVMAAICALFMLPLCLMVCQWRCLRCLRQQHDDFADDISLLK
Procedure: β-secretase (BACE-1, Sigma-Aldrich) inhibition studies were performed by employing a peptide mimicking APP sequence as substrate (Methoxycoumarin-[sequence]dinitrophenyl, M-2420, Bachem, Germany). The following procedure was employed: 5 μL of test compounds (or DMSO, if preparing a control well) were pre-incubated with 175 μL of enzyme (in 20 mM sodium acetate containing 3-[(3-Cholamidopropyl)dimethylammonio]-1-propanesulfonate (CHAPS) 0.1% w/v) for 1 hour at rt. The substrate (3 μM, final concentration) was then added and left to react for 15 minutes at 37° C. The fluorescence signal was read at λem=405 nm (λexc=320 nm) using a Fluoroskan Ascent. […] The fluorescence intensities with and without inhibitor were compared and the percent inhibition due to the presence of test compounds was calculated. The background signal was measured in control wells containing all the reagents, except BACE-1 and subtracted. The % inhibition due to the presence of increasing test compound concentration was calculated by the following expression: 100−(IFi/IFo×100) where IFi and IFo are the fluorescence intensities obtained for BACE-1 in the presence and in the absence of inhibitor, respectively. […] The linear regression parameters were determined and the IC50 extrapolated (GraphPad Prism 4.0, GraphPad Software Inc.).

[2] = system: primary astrocytes and microglial cells; assay: Nitrites measurement (Griess reaction) in LPS-stimulated primary glial cells; format: cell-based, rat; details: compounds 10 μM for 1 hour, then LPS 10 μg/mL for 24 hours; astrocytes and microglia; potency compared with 6-amino triazinones A-C (FIGS. 2A, 2B)
Procedure: Astrocytes were prepared from neonatal (P2) rat cerebral cortex, as previously described by Luna-Medina et al. [Luna-Medina, R.; Cortes-Canteli, M.; Alonso, M.; Santos, A.; Martinez, A.; Perez-Castillo, A. Regulation of inflammatory response in neural cells in vitro by thiadiazolidinones derivatives through peroxisome proliferator-activated receptor gamma activation. J. Biol. Chem. 2005, 280, 21453-21462].
Briefly, after removal of the meninges, the cerebral cortex was dissected, dissociated, and incubated with 0.25% trypsin/EDTA at 37° C. for 1 hour. After centrifugation, the pellet was washed 3 times with Hank's balanced salt solution (HBSS) (Gibco) and the cells were placed on noncoated flasks and maintained in HAMS/Dulbecco's modified eagle's medium (DMEM) (1:1) medium containing 10% of fetal bovine serum (FBS). After 15 days, the flasks were agitated on an orbital shaker for 4 hours at 240 rpm at 37° C., the supernatant was collected, centrifuged, and the cellular pellet containing the microglial cells resuspended in complete medium (HAMS/DMEM (1:1) containing 10% FBS) and seeded on uncoated 96-well plates. Cells were allowed to adhere for 2 hours, and the medium was removed to eliminate nonadherent oligodendrocytes. New fresh medium containing 10 ng/mL of granulocyte-macrophage colony-stimulating factor (GM-CSF) was added. The remaining astroglial cells adhered on the flasks were then trypsinized, collected, centrifugated, and plated onto 96-well plates with complete medium. The purity of cultures obtained by this procedure was >98% as determined by immunofluorescence with the OX42 (microglial marker) and the glial fibrillary acidic protein (GFAP, astroglial marker) antibodies.
The potential anti-inflammatory activity of the selected compounds was tested by evaluating the production of nitrites from primary cultured glial cells. Primary cultures of astrocytes and microglia were incubated with the selected compounds (10 μM) for 1 hour, and then cells were cultured for another 24 hours with a potent inflammatory agent, such as lipopolysaccharide (LPS) (10 μg/mL). LPS is able to induce nitrite production and accumulation in the culture medium, which was assayed by the standard Griess reaction. Supernatants were collected from the media and mixed with an equal volume of Griess reagent (Sigma). Samples were then incubated at rt for 15 minutes and absorbance read using a plate reader at 492/540 nm.

SMILES | number of MAP-2 positive cells (mature neuronal marker) [1] | IC50 (Human recombinant GSK-3β) [µM] | IC50 (β-secretase (BACE-1)) [µM] | reduction of LPS-induced nitrite production [2]
NC1=NC(c2ccc(F)cc2)NC(=O)N1 (centres unmarked) [Compound A, reference compound] | only a marginal increase |  |  | 
CCNC1=NC(c2ccccc2C)NC(=O)N1 (centres unmarked) [Example 2, 6-(ethylamino)-4-(o-tolyl)-3,4-dihydro-1,3,5-triazin-2(1H)-one] |  | 40.7 ± 2.7 | 50.3 ± 6.61 | 
O=C1NC(Nc2ccccc2)=NC(c2ccc(F)cc2)N1 (centres unmarked) [Example 9, 4-(4-fluorophenyl)-6-(phenylamino)-3,4-dihydro-1,3,5-triazin-2(1H)-one] |  | 6.93 ± 0.14 |  | higher potency
